Experiments:
caspase-3 [1] = assay: ESI-MS on purified caspase-3 (covalent modification); type: binding; conditions: 10a under irradiation at 365 nm
From the text: Our probes were designed to irreversibly photocrosslink to caspase-3. In order to show covalent complex formation, we made use of the alkyne function located at the N-terminus of all probes by installing a tetramethyl rhodamine fluorophore (TAMRA) via copper(I)-catalyzed azide alkyne cycloaddition. […] To exclude that this observation was due to our gel-based read-out, we also performed mass spectrometry experiments. […] This mass shift corresponded to the covalent modification (Figure 3C).
Intact proteins were analyzed on an orbitrap Fusion Lumos mass spectrometer equipped with a nanoelectrospray ion source (Thermo Fischer, Dreieich, Germany). Sample desalting was performed using Amicon Ultra-0.5 3K NMWL centrifugal filters (Merck Millipore, Darmstadt, Germany) according to the manufacturer’s protocol and samples were brought to a final concentration of approx. 1 pmol/µL (in 25% MeOH and 0.5% formic acid). […]
Figure 3 Non-covalent inhibition of caspase-3 by compounds 9 and 10. […] (G) UV irradiation of ψ(CH2NH) peptides 14 and 15 in the presence of benzophenone leads to inhibition of caspase-3, as monitored by competitive ABPP. […] Ac-DEVD-aldehyde (100 nM) was used as a control compound, whereas 9a and 10a (10 μM) were irradiated for 10 min and reacted with sodium bisulfite for an additional 20 min before 30 min incubation with caspase-3 and read-out with a fluorescent caspase ABP.

caspase-3 [2] = assay: Gel-based competitive ABPP on recombinant caspase-3; type: biochemical; conditions: 10 μM compound, PBS with 1 mM DTT, fluorescent ABP read-out on gel
Description: To check whether our probes function as inhibitors, competitive ABPP [28] was performed. Recombinant caspase-3 was incubated with probes 9a–10c, 11a and 12a with or without irradiation at 365 nm, followed by labeling of residually active caspase-3 with the fluorescent, caspase-directed activity-based probe (ABP) SV149, a tetramethylrhodamine derivative of KMB-01 [29]. Caspase activity itself was not affected by UV irradiation, as shown by bands of equal intensity with and without UV light (Figure 2A). […] To confirm inhibition, we also performed substrate cleavage assays using the fluorogenic aminomethyl coumarin substrate Ac-DEVD-AMC. […] Inhibition of active caspases could also be achieved in an apoptotic cell lysate (Figure 2D).
Caspase-3, produced in E. coli and purified as described before, was reacted in PBS with 1 mM DTT. Samples were combined with the indicated probe and irradiated with a handheld UV lamp at 365 nm for 30 min at room temperature. For competition experiments with ‘pre-activation,’ the indicated probes were irradiated for 30 min prior to addition to caspase-3, and incubated for an additional 30 min. Next, ABP 13 was added (final concentration 1 μM) to label residual caspase-3 activity. The samples were incubated for 30 min at room temperature, after which 1/3rd volume of 4× Laemmli buffer was added. Samples were heated at 95 °C for 2 min and resolved by 15% SDS-PAGE. Gels were scanned using a Typhoon Trio+ fluorescent scanner with excitation at 532 nm and an emission filter of 580 nm. Gel images were processed with ImageJ (background subtraction with rolling ball radius of 50 pixels and automated contrast adjustment).
Figure 2 Inhibition of caspase-3. (A) Competitive activity-based protein profiling (ABPP) experiments using ψ(CH2NH) or triazolo peptide derivatives 9–12 with or without irradiation. Compounds 9a–12a were used at 10 μM final concentration, 9b, 9c, 10b and 10c at 100 μM. Inh = caspase inhibitor biotin-DEVD-AOMK, used at 100 nM concentration. (B) Representative progress curves of fluorescence produced by Ac-DEVD-AMC (50 μM) cleavage by caspase-3, irradiated with or without 10 μM of the indicated compounds. (C) Bar graph of residual caspase-3 activity of replicate experiments (n = 2) of those in (B). (D) Inhibition of executioner’s caspase-3 and -7 in lysates of HEK293 cells, treated with cytochrome c/dATP to induce apoptosis.

caspase-3 [3] = assay: Competitive ABPP with bisulfite aldehyde quenching; type: biochemical; conditions: 10 μM, irradiated 10 min, reacted with 10 mM NaHSO3 for 20 min, then 30 min with caspase-3, fluorescent ABP read-out
From the text: The presence of a ψ(CH2NH) peptide with benzophenone or UV irradiation alone was not sufficient for inhibition, but all needed to be present to block the caspase-3 active site (Figure 3G,H). We hypothesized that the active species is a peptide aldehyde, formed by oxidation of the ψ(CH2NH) moiety (see also discussion in Section 3). To support this hypothesis, we performed an experiment in which this aldehyde was trapped by sodium bisulfite, forming a sodium bisulfite adduct.
Compounds were incubated with or without irradiation (10 min) in PBS with or without 10 mM NaHSO3 and incubated for another 20 min before addition to caspase-3. After 30 min, ABP 13 was added (final concentration 1 μM) to label residual caspase activity. The samples were incubated for 30 min at room temperature, after which 1/3rd volume of 4× Laemmli buffer was added. Samples were processed in the same way as under Section 4.4.1.
Figure 3 Non-covalent inhibition of caspase-3 by compounds 9 and 10. (A) Fluorescent labeling of caspase-3 by ψ(CH2NH) peptides 9–10 and triazolo peptides 11–12. […] (B) Deconvoluted ESI-MS of caspase-3. (C) Deconvoluted ESI-MS of caspase-3 after incubation with covalent activity-based probe (ABP) 13. Note that the active site, located on the large subunit, is modified. (D) Deconvoluted ESI-MS of caspase-3 after irradiation in the presence of benzophenone ψ(CH2NH) 10a, not resulting in covalent modification. […] (F) Structures of ψ(CH2NH) peptides 14 and 15 without photocrosslinker. (G) UV irradiation of ψ(CH2NH) peptides 14 and 15 in the presence of benzophenone leads to inhibition of caspase-3, as monitored by competitive ABPP. […] Ac-DEVD-aldehyde (100 nM) was used as a control compound, whereas 9a and 10a (10 μM) were irradiated for 10 min and reacted with sodium bisulfite for an additional 20 min before 30 min incubation with caspase-3 and read-out with a fluorescent caspase ABP.

Hexynoyl-Asp-Glu-Val-Aspψ(CH2NH)-Ala-Bpa-NH2 [10a]
Covalent modification of caspase-3 (mass shift, ESI-MS) (caspase-3 [1]): did not reveal any modification | Inhibition of caspase-3 activity (caspase ABP labeling) (caspase-3 [2]; irradiated at 365 nm for 30 min at room temperature): complete inhibition | Inhibition of caspase-3 activity (caspase ABP labeling) (caspase-3 [2]; non-irradiated): no decrease in caspase ABP labeling | Inhibition of caspase-3 by irradiated sample exposed to sodium bisulfite (caspase-3 [3]): lose their inhibitory capacity

Reference: article PMC6337261, “Short Peptides with Uncleavable Peptide Bond Mimetics as Photoactivatable Caspase-3 Inhibitors” (Molecules, 2019)
